Test results: the NIST ThermoML archive (doi:10.1021/je900302n)
± gives the expanded uncertainty stated by the source.

Settings: Liquid; pulse heating

Structure (SMILES)	Critical pressure [kPa]	Critical temperature [K]
CCCCCCCCCC[O][Ti]([O]CCCCCCCCCC)([O]CCCCCCCCCC)[O]CCCCCCCCCC [tetra(decyloxy)titanium]	610 ± 40	882 ± 18
CC[O-].CC[O-].CC[O-].CC[O-].[Ti+4] [tetraethoxytitanium]	1400 ± 80	647 ± 12
CCCCCCC[O][Ti]([O]CCCCCCC)([O]CCCCCCC)[O]CCCCCCC [tetraheptoxytitanium]	730 ± 40	808 ± 16
CCCCCC[O][Ti]([O]CCCCCC)([O]CCCCCC)[O]CCCCCC [tetrakis(hexyloxy)titanium]	780 ± 40	780 ± 16
CCCCC[O][Ti]([O]CCCCC)([O]CCCCC)[O]CCCCC [tetrakis(pentyloxy)titanium]	910 ± 60	751 ± 16
CCCCCCCCC[O][Ti]([O]CCCCCCCCC)([O]CCCCCCCCC)[O]CCCCCCCCC [tetranonoxytitanium]	630 ± 40	855 ± 18
CCCCCCCC[O][Ti]([O]CCCCCCCC)([O]CCCCCCCC)[O]CCCCCCCC [tetraoctoxytitanium]	660 ± 40	831 ± 16
CCC[O-].CCC[O-].CCC[O-].CCC[O-].[Ti+4] [tetrapropoxytitanium]	1150 ± 80	685 ± 14
CCCC[O-].CCCC[O-].CCCC[O-].CCCC[O-].[Ti+4] [titanium(IV) butan-1-olate]	1020 ± 60	719 ± 14
